Experimental data: PMC12640663 (Chemmedchem, 2025)
Entries after “also recorded” stand apart in the source; their conditions may differ.

Key:
TCPTP = target: T1, TCPTP (Homo sapiens, UniProt P17706); test: T‐cell protein tyrosine phosphatase (TCPTP) activity assay (p‐NPP); format: biochemical; settings: ± S.D; assessed up to 100 μM; read-out: TCPTP IC50
T1 sequence (P17706 1-415): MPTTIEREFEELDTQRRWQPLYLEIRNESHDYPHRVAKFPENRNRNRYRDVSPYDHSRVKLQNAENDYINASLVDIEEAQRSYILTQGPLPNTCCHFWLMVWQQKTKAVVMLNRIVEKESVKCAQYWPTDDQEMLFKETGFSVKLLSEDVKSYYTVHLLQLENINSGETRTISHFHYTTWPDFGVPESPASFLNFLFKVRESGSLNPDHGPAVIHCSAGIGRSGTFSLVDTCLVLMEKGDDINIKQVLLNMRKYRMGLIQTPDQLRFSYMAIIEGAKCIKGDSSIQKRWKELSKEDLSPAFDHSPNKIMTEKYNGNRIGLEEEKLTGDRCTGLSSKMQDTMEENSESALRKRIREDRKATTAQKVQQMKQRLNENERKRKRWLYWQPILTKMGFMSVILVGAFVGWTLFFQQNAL
Experimental: The effectiveness and safety of protein tyrosine phosphatase (PTP) inhibitors depend on their specificity. PTP1B and TCPTP serve different functions: PTP1B is involved in metabolism and cancer, while TCPTP regulates immune function. Inhibiting TCPTP could impact the immune response, whereas inhibiting PTP1B may benefit metabolic diseases without these side effects.^[ [20] ^, [34] ^, [35] ^] […] These compounds were assessed up to 100 μM (Table 1).
TCPTP enzyme reported by Mendoza et al. was used for this assay. […] Aliquots of 0–10 µL (triplicate) of the newly synthesized compounds, positive control, and solvent were taken. These were incubated with 85 µL of enzyme solution (Tris, 50 mM, pH 6.8, TCPTP) and 5 µL of substrate (p‐NPP, 10 mM) for 15 min at 37 °C.

hPTP1B1–400 = target: T2, hPTP1B1–400 (Homo sapiens, UniProt P18031); test: Kinetic studies of PTP1B (hPTP1B1–400);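 note: enzyme kinetics run across a range of substrate and inhibitor levels, control lacking inhibitor, triplicate runs, parameters derived by fitting Michaelis–Menten style equations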
T2 sequence (P18031 1-400): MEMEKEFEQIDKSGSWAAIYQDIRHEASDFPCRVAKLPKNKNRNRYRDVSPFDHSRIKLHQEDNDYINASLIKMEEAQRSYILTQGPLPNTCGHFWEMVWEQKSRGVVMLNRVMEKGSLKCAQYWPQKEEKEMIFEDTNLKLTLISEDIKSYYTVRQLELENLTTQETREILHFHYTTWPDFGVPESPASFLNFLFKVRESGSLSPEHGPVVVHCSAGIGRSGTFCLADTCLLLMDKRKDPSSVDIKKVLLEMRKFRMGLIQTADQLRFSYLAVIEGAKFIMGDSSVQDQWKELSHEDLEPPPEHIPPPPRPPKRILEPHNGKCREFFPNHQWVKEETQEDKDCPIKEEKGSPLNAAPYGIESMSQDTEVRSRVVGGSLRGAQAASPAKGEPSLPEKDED
Experimental: Kinetic analyses were performed at various substrate and inhibitor concentrations.
The negative control was prepared with the enzyme and substrate in the absence of the inhibitor. Experiments were conducted in triplicate.^[ [30] ^] […] The kinetic parameters of enzyme inhibition, K m and V max, were determined by fitting the data to the Michaelis‐Menten model, Equation (3) (OriginPro 2018 (64‐bit) SR1). (3) y=VmaxX/Km+X´ where V max: is the maximum velocity, X: is the inhibitor concentration, K m: Michaelis constant.
(4) y=Vmax(X)/(Km/1+I/Ki)+X where V max: maximum velocity, X: substrate concentration, I: inhibitor concentration, K m: Michaelis constant, K i : inhibition constant.

HepG2 cells = test: Cell viability with crystal violet; format: cell-based; settings: 1 and 25 µM, 24 h
Experimental: (§1) Subsequently, we evaluated the same compounds in a HepG2 insulin‐resistant model.
A 96‐well plate was seeded with 3,000 cells per well and incubated for 24 h. Afterward, the cells were treated with test compounds at various concentrations for 24 h. After incubation, the media was removed, and 100 µL of 1% glutaraldehyde was added for 15 min. Afterward, the liquid was removed, and 50 µL of 0.5% crystal violet (dissolved in 25% methanol) was added for 30 min. The crystal violet staining solution was removed, and the plate was thoroughly washed with tap water. The precipitate was dissolved in a 10% acetic acid solution and mixed for 15 min. The absorbance was then measured at 590 nm using a plate reader (xMark Microplate Spectrophotometer—Bio‐Rad).
Figure S59. Cell viability assessment by crystal violet staining. HepG2 cell viability was evaluated
after treatment with the respective compounds at concentrations of 1 and 25 µM for 24 hours. Bar
graphs represent mean ± SEM.

[1] = tested on: insulin‐resistant HepG2 cells; test: Insulin‐resistant HepG2 model, western blotting of PTP1B and pAKT; format: cell-based; settings: 24 h, western blot
Experimental: as §1
Bar graphs represent the mean ± SEM of normalized values. The control levels were set at 1. T‐test significance *p < 0.05, when compared with control (DMSO). Statistical analyses were carried out using GraphPad Prism 8.0.
For the resistant insulin model using HepG2 cells, the following reagents were acquired from Sigma–Aldrich (Toluca, MEX, Mexico, and St. Louis, MO, USA): Insulin (I2643), Dulbecco's modified eagle's medium (DMEM) low glucose media (D5523), Trypsin‐EDTA solution (T4174), antibiotic‐antimycotic solution(A5955), dimethyl sulfoxide (DMSO‐D8418), sodium deoxycholate (D6750), triethylammonium bicarbonate buffer 1 M (TEAB‐T7408), glutaraldehyde 25% (G6275), acetic acid (695092), and crystal violet (C0775). The bicinchoninic acid protein quantitation kit (23225) and the Halt Cocktail with protease and phosphatase inhibitors (1861281) were acquired from ThermoFisherScientific. Fetal bovine serum (26140–079) was from Gibco. The chemiluminescent solution (170–5061) was acquired from Biorad. Rabbit anti‐PTP1B (5311S) and mouse anti‐β actin (3700S) primary antibodies were obtained from Cell Signaling, and secondary antibodies coupled with horseradish peroxidase were from Jackson laboratories (rabbit‐111−035, mouse‐115–035).
Treated cells with compounds were washed twice with 1 mL of PBS, and protein was extracted using 500 µL of a buffer solution containing 10% sodium deoxycholate in 10% TEAB, supplemented with a protease and phosphatase inhibitor cocktail. The extracts were heated to 80 °C for 5 min and disaggregated through passages with an insulin syringe. The cell extracts were centrifuged at 15,000 rpm for 15 min at 4 °C, and the supernatant was collected. Protein quantification was performed using the bicinchoninic acid assay method, and aliquots were prepared for western blotting. SDS/PAGE was conducted, and proteins were transferred onto a nitrocellulose membrane. The membrane was then blocked with 10% skimmed milk in TBST for 1 h and incubated overnight with primary antibodies (1:400 dilution). Secondary antibodies coupled to horseradish peroxidase were diluted 1:2000, and membranes were incubated for 1 h. The blots were documented using the ChemiDoc MP (Bio‐Rad), and densitometric analysis was performed using ImageJ (U.S. National Institutes of Health). Statistical analyses were carried out using GraphPad Prism 8.0.

[2] = ± S.D, hPTP1B1–400 with inhibitor

IC50 (TCPTP): > 100000 nM
Ki (hPTP1B1–400; K i, ± S.D, hPTP1B1–400, p‐NPP 0.1 to 0.5 mM): 71 ± 8 nM
Inhibition type (hPTP1B1–400; hPTP1B1–400): uncompetitive inhibition
K m (hPTP1B1–400; [2]): 520 ± 70 µM
V max (hPTP1B1–400; [2]): 0.62 ± 0.05 mM/min
SMILES: CC1(C(=O)O)CCC2(C)CCC3(C)C(=CC(=O)C4C5(C)Cc6c([nH]c7ccc(C(F)(F)F)cc67)C(C)(C)C5CCC43C)C2C1 (stereo not shown) [Compound 3c]
HepG2 cell viability (HepG2 cells): No significant differences; also recorded: did not compromise HepG2 cell viability
AKT phosphorylation (pAKT) levels [1]: slight increase; also recorded: slightly increased pAKT levels
